PubChem BioAssay (NCI)
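At the GI50, growth is halved. TGI: concentration producing complete growth inhibition.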

Assays:
Assay in all cases: DTP human tumour cell line panel, 384-well format
[1] = test system: OVCAR-3 ovarian
[2] = test system: SW-620 colon
[3] = test system: KM12 colon
[4] = test system: UO-31 renal
[5] = test system: NCI/ADR-RES ovarian
[6] = test system: NCI-H226 lung
[7] = test system: HT29 colon
[8] = test system: SF-295 CNS
[9] = test system: DU-145 prostate
[10] = test system: SNB-19 CNS
[11] = test system: SK-MEL-28 melanoma
[12] = test system: SF-268 CNS
[13] = test system: MDA-MB-468 breast
[14] = test system: ACHN renal
[15] = test system: SR leukemia
[16] = test system: PC-3 prostate
[17] = test system: SK-MEL-5 melanoma
[18] = test system: CCRF-CEM leukemia
[19] = test system: OVCAR-5 ovarian
[20] = test system: 786-0 renal
[21] = test system: CAKI-1 renal
[22] = test system: HCC-2998 colon
[23] = test system: LOX IMVI melanoma
[24] = test system: COLO 205 colon
[25] = test system: BT-549 breast
[26] = test system: RXF 393 renal
[27] = test system: HS 578T breast
[28] = test system: UACC-257 melanoma
[29] = test system: A549 NSCLC
[30] = test system: HOP-62 NSCLC
[31] = test system: MDA-MB-231 breast
[32] = test system: HCT-15 colon
[33] = test system: SK-OV-3 ovarian
[34] = test system: SN12C renal
[35] = test system: OVCAR-8 ovarian
[36] = test system: EKVX NSCLC
[37] = test system: SF-539 CNS
[38] = test system: OVCAR-4 ovarian
[39] = test system: NCI-H322M lung
[40] = test system: UACC-62 melanoma
[41] = test system: NCI-H522 lung
[42] = test system: A498 renal
[43] = test system: K-562 leukemia
[44] = test system: RPMI-8226 leukemia
[45] = test system: M14 melanoma
[46] = test system: MCF7 breast
[47] = test system: HL-60(TB) leukemia
[48] = test system: NCI-H23 lung
[49] = test system: IGROV1 ovarian
[50] = test system: MALME-3M melanoma
[51] = test system: SNB-75 CNS
[52] = test system: MDA-MB-435 melanoma
[53] = test system: MOLT-4 leukemia
[54] = test system: NCI-H460 NSCLC
[55] = test system: T-47D breast

C=CC(=O)N1C[C@H](COc2nc(Nc3cnn(C)c3)nc3[nH]cc(Cl)c23)[C@@H](OC)C1
GI50 [1]: 2.72 µM | TGI [1]: 23.6 µM | GI50 [2]: 0.673 µM | TGI [2]: 2.11 µM | GI50 [3]: 0.287 µM | TGI [3]: 14.3 µM | GI50 [4]: 7.62 µM | TGI [4]: > 100 µM | GI50 [5]: 29.3 µM | TGI [5]: > 100 µM | GI50 [6]: 0.394 µM | TGI [6]: 9.42 µM | GI50 [7]: 4.01 µM | TGI [7]: > 100 µM | GI50 [8]: 13.3 µM | TGI [8]: 31.5 µM | GI50 [9]: 2.26 µM | TGI [9]: > 100 µM | GI50 [10]: 5.2 µM | TGI [10]: 23.1 µM | GI50 [11]: 3.82 µM | TGI [11]: 16.8 µM | GI50 [12]: 1.93 µM | TGI [12]: 12.3 µM | GI50 [13]: 0.267 µM | TGI [13]: 0.628 µM | GI50 [14]: 1.94 µM | TGI [14]: 15.4 µM | GI50 [15]: 0.19 µM | TGI [15]: 0.351 µM | GI50 [16]: 4.53 µM | TGI [16]: 20.5 µM | GI50 [17]: 3.01 µM | TGI [17]: 12.2 µM | GI50 [18]: 0.242 µM | TGI [18]: 0.544 µM | GI50 [19]: 5.34 µM | TGI [19]: > 100 µM | GI50 [20]: 4.84 µM | TGI [20]: 41.8 µM | GI50 [21]: 1.17 µM | TGI [21]: 11.9 µM | GI50 [22]: 3.86 µM | TGI [22]: 15 µM | GI50 [23]: 1.52 µM | TGI [23]: 11.6 µM | GI50 [24]: 0.54 µM | TGI [24]: 11.1 µM | GI50 [25]: 0.47 µM | TGI [25]: 10.3 µM | GI50 [26]: 5.76 µM | TGI [26]: 22.3 µM | GI50 [27]: 1.37 µM | TGI [27]: 4.19 µM | GI50 [28]: 5.21 µM | TGI [28]: 17.1 µM | GI50 [29]: 2.25 µM | TGI [29]: 13.1 µM | GI50 [30]: 4.05 µM | TGI [30]: 26.5 µM | GI50 [31]: 2.78 µM | TGI [31]: > 100 µM | GI50 [32]: 2.93 µM | TGI [32]: 12.3 µM | GI50 [33]: 0.556 µM | TGI [33]: 5.05 µM | GI50 [34]: 0.633 µM | TGI [34]: 12.8 µM | GI50 [35]: 4.15 µM | TGI [35]: 18.7 µM | GI50 [36]: 1.31 µM | TGI [36]: 7.08 µM | GI50 [37]: 1.21 µM | TGI [37]: 3.2 µM | GI50 [38]: 1.75 µM | TGI [38]: 23.6 µM | GI50 [39]: 1.39 µM | TGI [39]: 13.8 µM | GI50 [40]: 0.912 µM | TGI [40]: 13.5 µM | GI50 [41]: 0.281 µM | TGI [41]: 0.858 µM | GI50 [42]: 0.584 µM | TGI [42]: 21.4 µM | GI50 [43]: 2.14 µM | TGI [43]: 12.3 µM | GI50 [44]: 1 µM | TGI [44]: 3.47 µM | GI50 [45]: 2.17 µM | TGI [45]: 18.2 µM | GI50 [46]: 2.02 µM | TGI [46]: 15.6 µM | GI50 [47]: 0.408 µM | TGI [47]: 1.55 µM | GI50 [48]: 1.59 µM | TGI [48]: 9.36 µM | GI50 [49]: 0.852 µM | TGI [49]: 3.31 µM | GI50 [50]: 8.86 µM | TGI [50]: 21.2 µM | GI50 [51]: 0.467 µM | TGI [51]: 1.88 µM | GI50 [52]: 4.27 µM | TGI [52]: 20.9 µM | GI50 [53]: 0.308 µM | TGI [53]: 0.833 µM | GI50 [54]: 1.81 µM | TGI [54]: 11.6 µM | GI50 [55]: 4.63 µM | TGI [55]: 18 µM
